Consider two molecules from patent publication US20210348164A1, “ENDOGENOUS CYTOPLASMIC ALU COMPLEMENTARY DNA IN AGE-RELATED MACULAR DEGENERATION” (University of Virginia Patent Foundation, priority 2018, published 2021).

Entries after “also recorded” stand apart in the source; their conditions may differ.

Assay [1] relates to Alu cDNA in ARPE-19 cells. Kind of assay: Alu cDNA in ARPE-19 cells (Alu c-PCR, in situ hybridization). It counts as cell-based, human. The settings on record: Alu c-PCR. The method, then: Cell culture and transfection. Primary mouse and human RPE cells were isolated as previously described (Kerur et al., 2018). All cells were maintained at 37° C. in a 5% CO2 environment. Mouse RPE cells were cultured in DMEM supplemented with 20% FBS and penicillin/streptomycin antibiotics at standard concentrations; primary human RPE cells were maintained in DMEM supplemented with 10% FBS and antibiotics. The human RPE cell line ARPE19 was cultured as previously described (Kerur et al., 2018) and maintained in DMEM-F12 containing penicillin/streptomycin, Fungizone, and gentamicin. HEK293T cells were cultured in DMEM with 10% fetal bovine serum (FBS) with 100 U/ml penicillin/streptomycin and 2 mM L-glutamine. […]
In situ hybridization. […] Visualization of fluorescein-labelled probe was performed with the TSA™ plus fluorescence system or the TSA™ plus Cy5 system (PerkinElmer). The fluorescent or Cy5 signals were detected using a Leica SP-5 or MR Nikon confocal microscope system. […]

Assay [2] deals with Alu cDNA in primary human RPE cells. As to the kind of experiment: Alu cDNA in primary human RPE cells (Alu c-PCR, real-time PCR, in situ hybridization, equator blotting). Type of assay: cell-based. The settings on record: primary human RPE cells; cytoplasmic fraction; Alu c-PCR. The method, then: Cell culture and transfection. Primary mouse and human RPE cells were isolated as previously described (Kerur et al., 2018). All cells were maintained at 37° C. in a 5% CO2 environment. Mouse RPE cells were cultured in DMEM supplemented with 20% FBS and penicillin/streptomycin antibiotics at standard concentrations; primary human RPE cells were maintained in DMEM supplemented with 10% FBS and antibiotics. The human RPE cell line ARPE19 was cultured as previously described (Kerur et al., 2018) and maintained in DMEM-F12 containing penicillin/streptomycin, Fungizone, and gentamicin. HEK293T cells were cultured in DMEM with 10% fetal bovine serum (FBS) with 100 U/ml penicillin/streptomycin and 2 mM L-glutamine. Primary wild-type mouse bone marrow-derived macrophages (BMDMs) were isolated, and cultured in Iscove's Modified Dulbecco's Medium (IMDM) supplemented with 30% L929 supernatant containing macrophage-stimulating factor, nonessential amino acids, sodium pyruvate, 10% FBS and antibiotics, 50 μM β-mercaptoethanol (Seo et al., 2015), and serum starved in IMDM with 1% FBS and 100 U/ml penicillin/streptomycin overnight prior to LPS stimulation. NRTIs or NNRTIs were added 30 minutes prior to LPS stimulation and again 30 minutes prior to ATP activation. LPS (100 ng/mL) was added for 3-4 hours prior to the addition of ATP. Cell lysates were collected 30 minutes after addition of ATP (5 mM). Primary human subcutaneous pre-adipocytes (Catalogue No. PCS-210-010, ATCC, Manassas, Va., United States of America) and primary human dermal fibroblasts (Catalogue No. PCS-201-012, ATCC) were grown in fibroblast basal medium with fibroblast growth kit for low serum (ATCC).
Umbilical artery vascular smooth muscle cells (Catalogue No. CC-2579, Lonza, Morristown, N.J., United States of America) were grown in SMGM™-2 Smooth Muscle Growth Medium-2 BULLETKIT™ (Lonza). Primary human skeletal myoblasts (Catalogue No. A11440, Thermo Fisher Scientific) were grown in DMEM with 2% horse serum. Primary human epidermal keratinocytes (Catalogue NO. CO215C, Thermo Fisher Scientific) were grown in EPILIFE® Medium (Thermo Fisher Scientific). Human umbilical vein endothelial cells (HUVEC) were grown in HUVEC EGM™-2 Media (Lonza). Primary human peripheral blood mononuclear cells (Catalogue NO. PCS-800-011, ATCC) were directly used without culture for experiments. RPMI 1640 medium with 10% human serum with human GM-CSF (Miltenyi Biotec Inc., Auburn, Calif., United States of America) was used as media during the experiment. Transfections were performed according to the manufacturer's instructions (LIPOFECTAMINE® 2000, Invitrogen). For transfection of primary human peripheral blood mononuclear cells, HiPerFect Transfection Reagent (Qiagen) was used as previously described (Troegeler et al., 2014). NRTIs were administered 60 minutes before transfection and added again upon replacement of media at 8 hours. To induce acid injury or osmotic stress, primary human RPE cells were treated with HCl (pH 4.0 media) or H2O for 30 minutes, 1 hour, and 2 hours at 37° C. in 5% CO2, respectively. NIH3T3 Tet-ON cells were cultured in DMEM with 10% tetracycline-free fetal bovine serum (FBS) with 100 U/ml penicillin/streptomycin. NIH3T3 Tet-ON cells were transfected with pLD401 (see Taylor et al., 2013; gift of J. D. Boeke, Institute for Systems Genetics, NYU Langone Health, New York, New York, United States of America) and human L1 ORF1p abundance was monitored after 24 hours of doxycycline induction. […]
Background: Quantitative PCR measures a nucleic acid by following its amplification.

Assay [3] relates to reverse transcriptase activity of cytoplasmic fractions of F9 cells. As to the kind of experiment: In vitro reverse transcriptase activity of cytoplasmic fractions (Alu RNA-templated, Alu-specific qPCR). Type of assay: biochemical, mouse. The method, then:
In vitro reverse transcriptase (RT) activity. In vitro reverse transcriptase (RT) activity in nuclear and cytoplasmic protein fractions was assessed using an Alu RNA-templated reaction. The RT reaction was carried out in a 20 μl reaction mix containing Alu RNA template (10 ng); Alu primer ([…]); dNTPs mix; cytoplasmic or nuclear protein, and Quantiscript RT Buffer (Qiagen). The reaction mixture was incubated at 42° C. for 30 minutes. The resulting cDNA was quantified by qPCR using Alu RNA template-specific primers. The reaction to evaluate self-priming activity of Alu RNA was carried out in the absence of priming oligos in a 20 μl reaction mix containing: Alu RNA with 3′-U tail; dNTP mix; cytoplasmic protein from mouse RPE cells; and Quantiscript RT Buffer (Qiagen) as described above. The resulting cDNA product was quantified by qPCR using Alu RNA template-specific primers. Alu RNA tailed on the 3′ end with chain terminator dideoxy thymidine base (ddTTP) was generated using TdT (New England Biolabs (NEB)) according to the manufacturer's instructions. Alu RNA tailed on the 3′ end with chain terminator cordycepin tri-phosphate was generated using PAP (NEB) according to the manufacturer's instructions.

The next assay has as its system reverse transcriptase. The settings on record: Fowler et al., 2014; Ambati et al., 2018; cited from earlier work.

Regarding `Cc1cn([C@H]2C=C[C@@H](CO)O2)c(=O)[nH]c1=O` [d4T, 2′,3′-didehydro-2′,3′-dideoxythymidine], the entries for the “Endogenous Alu cDNA abundance” value in assay [1] and in assay [2] were “reduced” and “dramatically decreased Alu cDNA levels; also recorded: reduced”, respectively.
Regarding azidothymidine triphosphate [AZT-TP], the “Alu cDNA formation from Alu RNA (reverse transcriptase activity)” value in assay [3] is “reduced Alu cDNA synthesis; also recorded: reduced Alu cDNA formation”. For the same molecule, the “inhibition of reverse transcriptase” value with reverse transcriptase was “inhibits reverse transcription”.
